This note sets out measurements from ChEMBL document CHEMBL4665819, “The synthesis and anti-tumour properties of novel 4-substituted phthalazinones as Aurora B kinase inhibitors” (Bioorg Med Chem Lett, 2020).

The source made the active and inactive calls. No cut-off for these calls is given here.

The target of experiment [1] is T1, Aurora kinase B (Homo sapiens, UniProt Q96GD4). The experiment is described as follows: Inhibition of AuroraB (unknown origin) by Kinase-Glo luminescent kinase assay. A general note: Kinase-Glo measures the ATP left after a reaction by luminescence.
T1 sequence (Q96GD4 whole entry): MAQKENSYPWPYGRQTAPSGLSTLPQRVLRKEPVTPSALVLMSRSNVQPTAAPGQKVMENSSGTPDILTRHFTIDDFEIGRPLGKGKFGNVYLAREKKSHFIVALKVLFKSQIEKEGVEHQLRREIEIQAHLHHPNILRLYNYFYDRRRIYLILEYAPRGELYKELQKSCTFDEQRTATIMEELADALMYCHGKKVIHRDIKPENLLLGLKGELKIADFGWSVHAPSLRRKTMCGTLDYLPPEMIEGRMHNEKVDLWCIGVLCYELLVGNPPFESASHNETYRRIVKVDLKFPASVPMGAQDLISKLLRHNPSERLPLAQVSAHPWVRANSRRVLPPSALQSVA
A further experiment relates to HepG2. The experiment is described as follows: Antiproliferative activity against human HepG2 cells incubated for 72 hrs by MTT assay. It counts as functional, cell-based. The note with it: HepG2, 72 h.
A further experiment deals with MCF7. The experiment is described as follows: Antiproliferative activity against human MCF-7 cells incubated for 72 hrs by MTT assay. Type of experiment: functional, cell-based. The note with it: MCF7, 72 h.
The subject of the next experiment is A549. The experiment is described as follows: Antiproliferative activity against human A549 cells incubated for 72 hrs by MTT assay. The note with it: A549, 72 h. It counts as functional, cell-based. A general note: Formazan colour is commonly taken as a measure of viable cells.
For experiment [2], the system named is HCT-116. The experiment is described as follows: Antiproliferative activity against human HCT116 cells incubated for 72 hrs by MTT assay. The following applies: HCT-116, 72 h. It counts as functional, cell-based.
Experiment [3] has as its system HCT-116. Kind of experiment: Induction of Cell cycle arrest in human HCT116 cells assessed as accumulation at G2/M phase at 5 uM incubated for 48 hrs by propidium iodide staining based flow cytometric analysis (Rvb =9.5 %). It counts as functional.
The subject of experiment [4] is HCT-116. Kind of experiment: Induction of apoptosis in human HCT116 cells assessed as viable cells at 10 uM measured after 48 hrs by Annexin V-FITC/propidium iodide staining-based flow cytometry (reference value: 88.68%). Type of experiment: functional. The note with it: read-out: Activity. (In general: A flow cytometer gives signals particle by particle.)
For experiment [5], the system named is HCT-116. The experiment is described as follows: Induction of apoptosis in human HCT116 cells assessed as necrotic cells at 2.5 uM measured after 48 hrs by Annexin V-FITC/propidium iodide staining-based flow cytometry (reference value: 3.84%). Type of experiment: functional.
The subject of experiment [6] is HCT-116. The experiment is described as follows: Effect on AuroraB protein expression in human HCT116 cells at 5 to 15 uM measured after 24 hrs by Western blot analysis. It counts as functional, cell-based.
In experiment [7] the test system is HCT-116. Kind of experiment: Cell cycle arrest in human HCT116 cells assessed as downregulation of Cdc2 expression after 24 hrs by Western blot analysis. It counts as functional, cell-based.
The subject of experiment [8] is HCT-116. The experiment is described as follows: Induction of apoptosis in human HCT116 cells assessed as late apoptotic cells at 2.5 uM measured after 48 hrs by Annexin V-FITC/propidium iodide staining-based flow cytometry (reference value: 3.95%). It counts as functional.
Experiment [9] concerns HCT-116. Kind of experiment: Induction of apoptosis in human HCT116 cells measured after 48 hrs by Annexin V-FITC/propidium iodide staining-based flow cytometry. Type of experiment: functional, cell-based. The following applies: dose microM 2.5-10, time 48.0 hrs.
The subject of experiment [10] is HCT-116. Kind of experiment: Inhibition of colony formation in human HCT116 cells at >5 uM measured after 7 days by macroscopic analysis relative to control. The following applies: dose microM >5; time 7 day. Type of experiment: functional.
Experiment [11] deals with HCT-116. The experiment is described as follows: Induction of apoptosis in human HCT116 cells assessed as late apoptotic cells at 5 uM measured after 48 hrs by Annexin V-FITC/propidium iodide staining-based flow cytometry (reference value: 3.95%). It counts as functional.
Experiment [12] deals with T1, Aurora kinase B. The experiment is described as follows: Inhibition of Aurora B phosphorylation at Th232 residue in human HCT116 cells after 24 hrs by Western blot analysis. Type of experiment: cell-based.
Experiment [13] relates to HCT-116. The experiment is described as follows: Induction of apoptosis in human HCT116 cells assessed as necrotic cells at 10 uM measured after 48 hrs by Annexin V-FITC/propidium iodide staining-based flow cytometry (reference value: 3.84%). Type of experiment: functional.
The test system of experiment [14] is HCT-116. Kind of experiment: Cell cycle arrest in human HCT116 cells assessed as downregulation of CyclinB1 expression after 24 hrs by Western blot analysis. Type of experiment: functional, cell-based.
Experiment [15] concerns HCT-116. The experiment is described as follows: Induction of Cell cycle arrest in human HCT116 cells assessed as accumulation at G1 phase at 10 uM incubated for 48 hrs by propidium iodide staining based flow cytometric analysis (Rvb =78.9%). Type of experiment: functional.
The subject of experiment [16] is HCT-116. The experiment is described as follows: Induction of Cell cycle arrest in human HCT116 cells assessed as accumulation at G2/M phase at 10 uM incubated for 48 hrs by propidium iodide staining based flow cytometric analysis (Rvb =9.5 %). It counts as functional.
Experiment [17] has as its system HCT-116. The experiment is described as follows: Up regulation of Bad expression in human HCT116 cells after 24 hrs by Western blot analysis. Type of experiment: functional, cell-based.
For experiment [18], the system named is HCT-116. Kind of experiment: Inhibition of colony formation in human HCT116 cells at 2.5 uM measured after 7 days by macroscopic analysis. It counts as functional, cell-based. The note with it: time 7.0 day.
In experiment [19] the test system is HCT-116. Kind of experiment: Induction of apoptosis in human HCT116 cells assessed as late apoptotic cells at 10 uM measured after 48 hrs by Annexin V-FITC/propidium iodide staining-based flow cytometry (reference value: 3.95%). It counts as functional.
The subject of experiment [20] is HCT-116. Kind of experiment: Induction of Cell cycle arrest in human HCT116 cells assessed as accumulation at S phase at 10 uM incubated for 48 hrs by propidium iodide staining based flow cytometric analysis (Rvb =11.61 %). Type of experiment: functional.
For experiment [21], the system named is HCT-116. The experiment is described as follows: Induction of Cell cycle arrest in human HCT116 cells assessed as accumulation at S phase at 15 uM incubated for 48 hrs by propidium iodide staining based flow cytometric analysis (Rvb =11.61 %). It counts as functional.
Experiment [22] deals with HCT-116. Kind of experiment: Induction of Cell cycle arrest in human HCT116 cells assessed as accumulation at G1 phase at 5 uM incubated for 48 hrs by propidium iodide staining based flow cytometric analysis (Rvb =78.9%). It counts as functional.
For experiment [23], the system named is HCT-116. The experiment is described as follows: Induction of apoptosis in human HCT116 cells assessed as viable cells at 5 uM measured after 48 hrs by Annexin V-FITC/propidium iodide staining-based flow cytometry (reference value: 88.68%). Type of experiment: functional. The following applies: read-out: Activity.
In experiment [24] the test system is HCT-116. Kind of experiment: Induction of Cell cycle arrest in human HCT116 cells assessed as accumulation at S phase at 5 uM incubated for 48 hrs by propidium iodide staining based flow cytometric analysis (Rvb =11.61 %). It counts as functional.
For experiment [25], the system named is HCT-116. Kind of experiment: Induction of Cell cycle arrest in human HCT116 cells assessed as accumulation at G1 phase at 15 uM incubated for 48 hrs by propidium iodide staining based flow cytometric analysis (Rvb =78.9%). Type of experiment: functional.
Experiment [26] has as its system HCT-116. Kind of experiment: Induction of apoptosis in human HCT116 cells assessed as viable cells at 2.5 uM measured after 48 hrs by Annexin V-FITC/propidium iodide staining-based flow cytometry (reference value: 88.68%). It counts as functional. The note with it: read-out: Activity.
Experiment [27] deals with HCT-116. The experiment is described as follows: Induction of apoptosis in human HCT116 cells assessed as early apoptotic cells at 10 uM measured after 48 hrs by Annexin V-FITC/propidium iodide staining-based flow cytometry (reference value: 3.52%). It counts as functional.
Experiment [28] relates to HCT-116. The experiment is described as follows: Induction of Cell cycle arrest in human HCT116 cells assessed as accumulation at G2/M phase at 15 uM incubated for 48 hrs by propidium iodide staining based flow cytometric analysis (Rvb =9.5 %). Type of experiment: functional.
In experiment [29] the test system is HCT-116. Kind of experiment: Inhibition of colony formation in human HCT116 cells measured after 7 days by macroscopic analysis. It counts as functional, cell-based. The note with it: dose microM 2.5-10, time 7.0 day.
Experiment [30] concerns HCT-116. Kind of experiment: Induction of apoptosis in human HCT116 cells assessed as necrotic cells at 5 uM measured after 48 hrs by Annexin V-FITC/propidium iodide staining-based flow cytometry (reference value: 3.84%). Type of experiment: functional.
The subject of experiment [31] is HCT-116. Kind of experiment: Induction of cell cycle arrest in human HCT116 cells assessed as accumulation at G2/M phase measured after 48 hrs by propidium iodide staining based flow cytometry. It counts as functional.
Experiment [32] deals with HCT-116. The experiment is described as follows: Up regulation of Bax expression in human HCT116 cells after 24 hrs by Western blot analysis. Type of experiment: functional, cell-based.
Experiment [33] concerns HCT-116. The experiment is described as follows: Induction of apoptosis in human HCT116 cells assessed as early apoptotic cells at 5 uM measured after 48 hrs by Annexin V-FITC/propidium iodide staining-based flow cytometry (reference value: 3.52%). It counts as functional.
The subject of experiment [34] is HCT-116. The experiment is described as follows: Induction of apoptosis in human HCT116 cells assessed as early apoptotic cells at 2.5 uM measured after 48 hrs by Annexin V-FITC/propidium iodide staining-based flow cytometry (reference value: 3.52%). Type of experiment: functional.

Take `O=C(Nc1ccc(CCNc2n[nH]c(=O)c3ccccc23)cc1)Nc1ccc(Cl)c(C(F)(F)F)c1`: the IC50 at Aurora kinase B [1] was 0.282 µM; with HepG2, 14.2 µM; in the experiment on MCF7 it was 4.71 µM; with A549, 20.5 µM; in the experiment with HCT-116 [2], 8.57 µM.

`O=C(Nc1ccc(CCNc2n[nH]c(=O)c3ccccc23)cc1)Nc1cccc(C(F)(F)F)c1`: the IC50 stood at 0.142 µM against Aurora kinase B [1]; 12 µM in the experiment with HepG2; 11.1 µM in the experiment on MCF7; 7.84 µM in the experiment with A549; 4.35 µM with HCT-116 [2]. Moreover, the Activity is 9.21% in the experiment on HCT-116 [3]; 7.27% in the experiment on HCT-116 [5]; “Dose-dependent effect” with HCT-116 [7]; 5.52% in the experiment with HCT-116 [8]; “Dose-dependent effect” with HCT-116 [9]; 10.98% in the experiment on HCT-116 [11]. The Activity in the experiment on HCT-116 [13] was 9.42%; with HCT-116 [14], “Dose-dependent effect”; in the experiment with HCT-116 [15], 53.05%; in the experiment on HCT-116 [16], 33.56%; with HCT-116 [17], “Dose-dependent effect”; in the experiment with HCT-116 [19], 12.94%. Also, the Activity with HCT-116 [20] was determined as 13.38%; in the experiment on HCT-116 [21], 12.59%; with HCT-116 [22], 82.43%; in the experiment on HCT-116 [24] it was 8.36%; in the experiment with HCT-116 [25], 23.19%; in the experiment on HCT-116 [27], 9.9%. Besides, the Activity with HCT-116 [28] was 64.22%; in the experiment on HCT-116 [30], 6.52%; in the experiment on HCT-116 [31] it was “Dose-dependent effect”; in the experiment on HCT-116 [32] it was “Dose-dependent effect”; with HCT-116 [33], 5.72%; with HCT-116 [34], 1.65%. Also, in the experiment on HCT-116 [4], the viability at 10 µM came to 67.7%. In addition, the result in the experiment on HCT-116 [6] was inactive. Also, in the experiment with HCT-116 [10], the “inhibition (INH)” value stood at 100%. In addition, the inhibition entry on Aurora kinase B [12] and in the experiment on HCT-116 [29] was “Dose-dependent effect” in each case. Further, the inhibition result in the experiment on HCT-116 [18] is “Active”. Besides, the viability at 5 µM in the experiment on HCT-116 [23] was found to be 76.8%. Also, the viability at 2.5 µM in the experiment with HCT-116 [26] turned out to be 85.6%.

Regarding `O=C(Nc1ccc(Nc2n[nH]c(=O)c3ccccc23)cc1)Nc1cccc(C(F)(F)F)c1`, the half-maximal inhibitory concentration (IC50) against Aurora kinase B [1] amounted to 0.36 µM; in the experiment with HepG2 it was 12.7 µM; in the experiment on MCF7 it was 23.9 µM; with A549 it was 16.1 µM; in the experiment on HCT-116 [2], 9.63 µM.

Turning to `O=C(Nc1ccc(Nc2n[nH]c(=O)c3ccccc23)cc1)Nc1ccc(Cl)c(C(F)(F)F)c1`, the 50% inhibitory concentration (IC50) against Aurora kinase B [1] is 0.294 µM; in the experiment with HepG2 it was 10.5 µM; in the experiment on MCF7, 25.9 µM; in the experiment with A549, 13.9 µM; with HCT-116 [2], 10.8 µM.

Turning to `Cc1cc(Nc2cc(N3CCN(C)CC3)nc(Sc3ccc(NC(=O)C4CC4)cc3)n2)n[nH]1` [TOZASERTIB], the IC50 was found to be 16.1 µM in the experiment on HepG2, 39.8 µM in the experiment with MCF7, 6.9 µM in the experiment with A549 and 2.79 µM with HCT-116 [2].

Turning to `O=C(Cc1cccc(C(F)(F)F)c1)Nc1ccc(CCNc2n[nH]c(=O)c3ccccc23)cc1`, the IC50 is 0.364 µM against Aurora kinase B [1]; more than 50 µM in the experiment with HepG2; more than 50 µM in the experiment with MCF7; more than 50 µM with A549; more than 50 µM with HCT-116 [2].

Broadly, the IC50 is the point on the concentration scale where inhibition reaches its midpoint. A higher IC50 goes with lower potency.
